Assay results taken from PubChem BioAssay AID179 (DTP/NCI, 2004).
Calls of active or inactive are those of the source.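 How the source made its calls: active means compounds giving half or more protection of infected cells from virus-caused growth loss, again on retest; inactive means the rest.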 Where a SMILES comes first, the peptide text is derived from it. Side-chain parts run from the residue outwards. The star is where a group is joined. Cbz = O=C(OCc1ccccc1)*; Boc = CC(C)(C)OC(=O)*

Test system: CEM cells HIV-1 protection, formazan growth assay
Experiment: NCI AIDS Antiviral Assay
Conditions: for IC50: measured here: growth of uninfected CEM cells
Summary of the method: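 Five concentrations of each compound were applied to infected and uninfected human CEM cells. Protection from HIV-1 was judged from growth measured with a soluble formazan assay.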

SMILES | EC50 [µM] | IC50 [µM] | outcome
Cc1cccc(C2NC(=O)N3C(c4cccc(C)c4)NC(=O)N23)c1 (stereo not drawn) | > 200 | 38 | 
CC(CC(=O)Nc1ccc(NC(=O)CC(C)N=NC(N)=S)cc1)N=NC(N)=S (stereo not drawn) | > 158 | 102 | 
COC1=CC(=O)[C@]2(C)[C@H](C1=O)C(C)[C@H]2c1ccccc1 (stereo partly drawn) | > 95.5 | > 95.5 | 
N#Cc1cccc(C(Br)S(=O)(=O)c2ccccc2)c1 (stereo not drawn) | > 77.6 | 72.4 | 
BrC1(Br)C2/C=C\CCCCC21 (stereo not drawn) |  |  | inactive
O=C(O)c1ccc(S(=O)(=O)c2cccc([N+](=O)[O-])c2)cc1 | > 200 | > 200 | 
Cc1ccc2c3nc4ccccc4c-3csc2c1 | 0.17 | 0.363 | 
O=C(Nc1ccn(C2CC(O)C(CO)O2)c(=O)n1)c1ccccc1 (stereo not drawn) | > 200 | > 200 | 
Cc1ccc(C)c(N2C(=O)C(=O)C(c3nc4ccccc4s3)C(=Nc3cccc4c(=O)[nH][nH]c(=O)c34)C2=O)c1 (stereo not drawn) |  |  | inactive
CN(C)CCNc1ccc2ncnc3c2c1C(=O)c1ccccc1-3 | > 1 | 0.219 | 
O=C1C=Cc2cc(Br)ccc2C12CCc1c(O)ccc3cc(Br)cc2c13 (stereo not drawn) |  |  | inactive
CCOC(=O)C1(O)N=C(c2ccccc2)c2ccccc2-n2cccc21 (stereo not drawn) | > 200 | > 200 | 
CO/C(=N/N1CC1C(F)(F)F)c1ccncc1 (stereo not drawn) |  |  | inactive
NNC(=O)/C(NC(=O)c1ccccc1)=C(\N)c1ccc(Cl)cc1 | > 282 | 162 | 
CCOC(=O)C(NC(=O)c1ccccc1)(N1CCN(c2cc3c(cc2F)c(=O)c(C(=O)O)cn3CC)CC1)C(F)(F)F (stereo not drawn) | > 200 | 34.7 | 
CC1(Cl)CC2C(CC1Sc1nnnn1-c1ccccc1)C2(C)C (stereo not drawn) | > 20.9 | > 20.9 | 
Cc1nc2ccncc2[nH]1 | > 269 | 191 | 
CC(C)CC(NC(=O)OCc1ccccc1)C(=O)NCCCCC(NC(=O)C(CCCCNC(=O)C(CC(C)C)NC(=O)OCc1ccccc1)NC(=O)C(CCCCNC(=O)C(CC(C)C)NC(=O)OCc1ccccc1)NC(=O)C(CCCCNC(=O)C(CC(C)C)NC(=O)OCc1ccccc1)NC(=O)OC(C)(C)C)C(=O)O (stereo not drawn) (Boc-K([Leu-Cbz])K([Leu-Cbz])K([Leu-Cbz])K([Leu-Cbz])-OH; configuration not given here) | > 100 | > 100 | 
Cn1c(=O)oc2cc(C(O)CN3CCN(Cc4ccc5c(c4)OCO5)CC3)ccc21 (stereo not drawn) | > 200 | > 200 | 
CCN(CC)CCNC(=O)c1nn(-c2ccc(Cl)cc2)c2c1CCc1cc(OC)ccc1-2 | > 91.2 | 5.01 | 
CC1(C)CNC(=O)C2(CCCO2)CNC(C)(C)CNC(=O)C2(CCCO2)CN1 (stereo not drawn) | > 126 | > 126 | 

SMILES | EC50 [µM] | IC50 [µM] | outcome
CN1CNc2nc(N)n(C)c(=O)c2C1 | > 200 | > 200 | 
CC(=O)c1sc2c(c1O)c(=O)n(-c1ccccc1)c(=S)n2-c1ccccc1 | > 240 | 70.8 | 
O=C1OC(CC(=O)c2ccc(Cl)cc2Cl)C(Cl)=C1Cl (stereo not drawn) | > 148 | 53.7 | 
CCN(CC)CCC(=O)c1ccc(Oc2ccc(Cl)cc2)cc1 | > 200 | 30.2 | 
N=C(c1ccc(-c2cn3cc(C(=N)N4CCCC4)ccc3n2)cc1)N1CCCC1 | 148 | > 200 | 
C/C=C1\CC2C(=O)CCC2C2c3ccccc3OC12 (stereo not drawn) | > 200 | > 200 | 
COc1ccc2nc(/C(N)=C\C#N)ccc2c1 | > 200 | 41.7 | 
Cc1cc(C)c2c(c1)CC1(Cc3ccc(C)c(C)c3C1=O)C2=O (stereo not drawn) | > 100 | > 100 | 
CCN(CC)c1cc2oc(=O)cc(C)c2cc1[N+](=O)[O-] | > 95.5 | 40.7 | 
CCOC(=O)c1c(-c2ccccc2)csc1N | > 123 | 107 | 
Clc1cc2n[se]nc2cc1Cl |  |  | inactive
COc1cccc(NC(=O)/C(Cc2nc3ccccc3nc2C)=N/NC(=O)C[n+]2ccccc2)c1 | > 95.5 | > 95.5 | 
Nc1ccn(C2OC(CO)C(O)C2Br)c(=O)n1 (stereo not drawn) | > 200 | 0.0631 | 
CCC[CH2][Sn]([CH2]CCC)([O]C(=O)C(N)CSC)[O]C(=O)C(N)CSC (stereo not drawn) | > 18.6 | 0.129 | 
CCc1c(Cc2ccccc2)n(COCCO[Si](C)(C)C(C)(C)C)c(=O)[nH]c1=O | > 34.7 | 12.6 | 
Cc1cc(C(O)CCCc2ccccc2)cc(C)c1O (stereo not drawn) | > 251 | 83.2 | 
O=Nc1sc(=N\O)/c(=N/O)sc1NO | > 200 | 32.4 | 
CCCCCCCCCCCCCCCC[NH][Ge]([NH]CCCCCCCCCCCCCCCC)([NH]CCCCCCCCCCCCCCCC)[NH]CCCCCCCCCCCCCCCC | > 7.41 | 4.79 | 
Cc1cc(C)c2c(c1)sc1nncn12 |  |  | inactive
CCN(CC)C(=O)c1cccc2c(OC)ccc(OC)c12 |  |  | inactive
Nc1ncnc2nc(C(O)C(O)C(O)CO)[nH]c12 (stereo not drawn) | > 102 | > 102 | 

SMILES | EC50 [µM] | IC50 [µM] | outcome
CCc1cc(-c2cccc3ccccc23)c(C#N)c(=S)n1C1OC(CO)C(O)C(O)C1O (stereo not drawn) | > 200 | 61.7 | 
O=S(=O)(c1ccccc1)c1ccccc1 | > 204 | > 204 | 
CCCCCCN(CCCCCC)C1=CC(=O)C(=O)c2ccccc21 | > 95.5 | 16.6 | 
Cn1c(=O)cc(NNc2ccc(Br)cc2)[nH]c1=O | > 200 | 6.17 | 
C#Cc1cccc(N2C(=O)CCC2=O)c1 | > 468 | 17.4 | 
CCCC(=O)Nc1cc2c3c(c1)CCCN3CCC2 | > 200 | 79.4 | 
Cc1ccc(Nc2nc(C)c(C(=O)C/C(=N/NC(N)=S)C(=O)Nc3cc(Cl)cc(Cl)c3)s2)cc1 | > 200 | 178 | 
CC(NC(=O)CNC(=O)C(N)CO)C(=O)NC(CCC(=O)O)C(=O)NC(CCCCN)C(=O)NC(C(=O)NC(CCC(N)=O)C(=O)NC(CCC(=O)O)C(=O)NC(CCC(N)=O)C(=O)NC(CCCN=C(N)N)C(=O)NC(C)C(=O)NC(CC(N)=O)C(=O)NC(C)C(=O)NC(Cc1cnc[nH]1)C(=O)NC(CO)C(=O)O)C(C)O (stereo not drawn) (H-SGAEKTQEQRANAHS-OH; configuration not given here) | > 100 | > 100 | 
Cl/C(N=Nc1ccccc1)=N/Nc1ccccc1 |  |  | inactive
COc1cc(-c2nccc3cc(OC)c(OC)cc23)ccc1O |  |  | inactive
Cn1cc(N)cc1C(=O)Nc1cc(C(=O)Nc2ccc3cc(S(=O)(=O)O)cc(S(=O)(=O)O)c3c2)n(C)c1 | 36.3 | 316 | 
COc1c2oc(=O)ccc2c(Br)c2c(Br)c(Br)oc12 | > 102 | 47.9 | 
C[C@]12CCC(OS(=O)(=O)O)CC1=CCC1C2CC[C@@]2(C)C1CC[C@@H]2C(=O)O (stereo partly drawn) | > 427 | 417 | 
COc1cc(CC2Cc3cccc(=O)c(O)c3C(=O)O2)cc(OC)c1OC (stereo not drawn) | > 120 | 17.4 | 
CCCCOC(=O)c1cc(C(=CCC[C@H]2CC[C@@]3(C)[C@@H](CC[C@@H]4[C@@H]3CC[C@]3(C)[C@@H](C(C)CCCC(C)C)CC[C@@H]43)C2)c2cc(Cl)c(O)c(C(=O)OCCCC)c2)cc(Cl)c1O (stereo partly drawn) | > 100 | > 100 | 
CCc1c(Cc2cc(C)cc(C)c2)n(COCCO[Si](C)(C)C(C)(C)C)c(=O)[nH]c1=O | 0.646 | 11.5 | 
CCOC(=O)C(C(=O)OCC)C(C(=O)OCC)C(=O)OCC | > 200 | > 200 | 
OCC(O)C(OC1OC(CO)C(O)C(O)C1O)c1nn(-c2ccccc2)c2nc3cc(Cl)c(Cl)cc3cc12 (stereo not drawn) |  |  | inactive
CC(C)NC(=O)CCN(C(=O)O)S(=O)(=O)c1ccc(NC(=O)c2ccccc2)cc1 | > 575 | > 575 | 
Brc1cc2c(cc1C1SCCS1)OCO2 | > 107 | 60.3 | 
CC(C)C1CC[C@H](C)C[C@@H]1OC(=O)C(C(=O)O[C@H]1C[C@@H](C)CCC1C(C)C)C(O)[C@@H]1OC(C)(C)O[C@H]1C1COC(C)(C)O1 (stereo partly drawn) | > 200 | 7.41 | 

SMILES | EC50 [µM] | IC50 [µM] | outcome
CN(C)C(=S)/N=C(\N)N(C)C |  |  | inactive
Cc1cc(N(CCC#N)CCC#N)ccc1/C(N=Nc1ccccc1)=N\NC(=O)c1ccccc1 | > 200 | 13.8 | 
CC1OC(OC2C(O)COC(OC3C(C)OC(OC4C(OC(=O)[C@]56CCC(C)(C)C[C@@H]5C5=CCC7[C@@]8(C)C[C@H](O)[C@H](OC9OC(CO)C(O)C(OC%10OC(CO)C(O)C(O)C%10O)C9O)[C@@](C)(CO)[C@@H]8CC[C@@]7(C)[C@]5(C)CC6)OCC(O)C4O)C(O)C3OC3OCC(O)(CO)C3O)C2O)C(O)C(O)C1O (stereo partly drawn) | > 19.1 | 12.3 | 
COC(=O)C1CC(=O)CCC1c1ccccc1 (stereo not drawn) | > 347 | > 347 | 
COc1ccc(CNc2cc(=O)n(C)c(=O)[nH]2)cc1 | > 200 | > 200 | 
CCCCNC(=O)Sc1ccccc1C(=O)NCCS(N)(=O)=O | 0.141 | 50.1 | 
Cc1cc(=O)c2cc3ccc4c5[nH]c(C)cc(=O)c5cc5ccc(c2[nH]1)c3c54 | > 200 | 33.9 | 
C/C(=C1/N=C(c2cc([N+](=O)[O-])ccc2Cl)N(C2=CC=C(Cl)CC2)C1=O)c1cc2ccccc2oc1=O | > 19.1 | > 19.1 | 
COc1ccc2c(ccc3c(C(=O)NCCN(C)CCNC(=O)c4cn(C)c5c4ccc4cc(OC)ccc45)cn(C)c32)c1 | > 200 | 1.15 | 
COc1ccc(C2[C@@H](Cl)C(=O)N2c2ccc(OC)cc2)cc1 (stereo partly drawn) |  |  | inactive
CCCS(=O)OC1C(C2COC(C)(C)O2)OC2OC(C)(C)OC21 (stereo not drawn) | > 200 | 95.5 | 
CN1C(=O)C2CC(=O)N(Cc3ccccc3)C(=O)C2C1=O (stereo not drawn) | > 288 | > 288 | 
O=P(O)(Cc1ccccc1)c1ccccc1-c1ccccc1 | > 200 | 49 | 
CCOC(=O)/C=C/c1ccc(C#N)cc1 |  |  | inactive
CNS(=O)(=O)NNS(=O)(=O)c1ccccc1 | > 933 | > 200 | 
CCOC(=O)NP(=O)(NNc1ccccc1)NNc1ccccc1 |  |  | inactive
COc1ccc(-c2c(N3CCOCC3)oc3cc(N4CCOCC4)c(O)cc23)cc1 | > 200 | 10.2 | 
COc1cccc(NC(=O)/C(CC(=O)CC(c2ccccc2)c2c(O)c3ccccc3oc2=O)=N\NC(C)(C)C)c1OC (stereo not drawn) | > 85.1 | 70.8 | 
